Assay results from article PMC12549899 (Nature Communications, 2025).

Target: T1, mouse OTOP1 (mOTOP1) (Mus musculus, UniProt Q80VM9)
T1 construct: expressed in transfected cells; host or cells: HEK-293 (CRL-1573, ATCC)
T1 sequence (Q80VM9 1-600): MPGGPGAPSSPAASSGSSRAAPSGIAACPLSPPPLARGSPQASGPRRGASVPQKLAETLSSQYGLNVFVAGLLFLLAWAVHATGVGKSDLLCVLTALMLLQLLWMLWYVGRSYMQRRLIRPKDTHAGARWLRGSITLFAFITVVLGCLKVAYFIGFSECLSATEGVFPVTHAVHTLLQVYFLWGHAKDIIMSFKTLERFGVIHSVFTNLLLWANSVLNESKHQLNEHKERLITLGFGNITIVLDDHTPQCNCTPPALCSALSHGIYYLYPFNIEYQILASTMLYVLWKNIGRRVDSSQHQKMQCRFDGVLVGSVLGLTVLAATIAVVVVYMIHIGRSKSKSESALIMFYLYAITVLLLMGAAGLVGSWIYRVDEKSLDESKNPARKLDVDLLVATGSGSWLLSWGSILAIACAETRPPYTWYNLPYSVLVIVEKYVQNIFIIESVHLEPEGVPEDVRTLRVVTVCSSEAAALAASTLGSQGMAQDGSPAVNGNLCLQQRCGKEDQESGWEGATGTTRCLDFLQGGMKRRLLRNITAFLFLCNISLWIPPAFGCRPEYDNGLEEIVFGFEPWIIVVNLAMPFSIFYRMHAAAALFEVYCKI
Assay: Whole-cell patch-clamp, inhibition of currents, mOTOP1 in HEK-293 cells
Format: cell-based
Conditions: HEK293, 100 µM (saturating concentration of C2.2)
From the text: The second series of compounds was again tested by whole-cell patch-clamp recording of DrOTOP1 expressed in HEK-293 cells. Of the 54 compounds tested, we identified 16 that inhibited DrOTOP1 acid-induced currents by over 25% (Fig. 2D and Supplementary Fig. 3E). […] The Hill coefficient of 1.52 indicated positive cooperativity and multiple binding sites, similar to C11. We next tested each of these compounds against mouse OTOP1 (mOTOP1) and human (Homo sapiens) OTOP1 (hOTOP1), which are among the closest related proteins in the mammalian proteome. […] For both compounds, we also determined whether there was any pH-dependence to their inhibitory effect by measuring dose-response curves over a range from pH 6.0, where sizable currents first appear, to pH 5.0. […]
Whole-cell patch-clamp recording was performed as previously described[6],[22],[25]. Recordings were made with an Axopatch 200B amplifier, digitized with a Digidata 1322a 16-bit data acquisition system, acquired with pClamp 8.2 and analyzed with Clampfit 10 (Molecular Devices). […]
All data are presented as mean ± SEM unless otherwise noted, and each data point represents an independent replicant. Inhibition of compounds was quantified as ((I2peak-I1)/(I2peak))*100, where I1 is the current immediately before wash-off and I2peak is the maximum recovered current (Supplementary Fig. 2). […]

`C=C(C)COc1ccccc1NC(=O)c1nc[nH]c1C` [C2.2] gave an inhibition at 100 µM of 1.92%.
